# From patent US20240252552A1, “LIPOTEICHOIC ACID FROM STAPHYLOCOCCUS EPIDERMIDIS AND ITS USE TO MODULATE NEURONAL ACTIVITY VIA PD-1 INHIBITORY SIGNALLING IN NEURONS” (Northwestern University, priority 2023, published 2024)
# “Also recorded” adds a separate entry of the source.
# Assays:
# PD-1 = PD-1 expression in ex vivo dorsal root ganglion culture (immunofluorescence, qPCR); format: cell-based; details: ex vivo DRG, MMG11 + SELTA, TLR2 blockade
# Description: FIGS. 5A, 5B, 5C, 5D, and 5E. […] Scale bars=10 μm. (B) Distribution of intensity of PD-1 immunoreactivity in DRG based on the size of individual neurons in control (upper) and SELTA treatment (bottom). […] For all quantification analysis, a two-way ANOVA was used. *P<0.05, **P<0.01, #P<0.05. n=3 to 4 per group.
# SELTA elevated PD-1 expression in primary sensory neurons. The inventor next examined PD-1 expression in the primary afferent neurons following direct exposure to SELTA. The inventor performed an ex vivo dorsal root ganglion (DRG) culture using DRG isolated at the levels of L2 to S1. Following 24-hour co-culture with SELTA, the expression of PD-1 was probed using immunofluorescence followed by confocal microscopy (FIG. 5A). To ascertain the cellular distribution of increased PD-1 expression, ImageJ analyses-based on individual cells were done and presented as the function of PD-1 immunoreactivity intensity to the cell size (FIG. 5B). Quantification was based on cell size-differential average fluorescence intensity (FIG. 5C). […] To further understand the expression of PD-1, immunoreactive intensities were normalized to the neuronal marker Neu-N (FIG. 5D). Changes were largely similar to FIG. 5C. The inventor next sought to examine whether the SELTA receptor TLR2 was involved in the modulation of PD-1 expression by SELTA. […]
# [1] = test system: trigeminal ganglion (TG) neurons; test: Real-time Ca2+ imaging (fura-2 AM) of ATP-stimulated TG neuronal cultures; format: cell-based, C57Bl/6 mice; details: TG neurons preincubated with MMG11
# Description: FIG. 8. […] Analysis with Student's t test, p<0.0001.
# SELTA-induced inhibition of Ca^2+ influx is reversed by neutralizing PD-1. In the transduction of nociceptive signal, Ca^2+ influx through voltage-gated Ca^2+ channels is critical for neurotransmitter release and synaptic transmission (12-14). To investigate whether intracellular Ca^2+ dynamics in the afferents are affected by SELTA (8, 15), the inventor established in vitro trigeminal ganglion (TG) neuronal cultures from adult C57Bl/6 mice and performed real-time Ca^2+ imaging using fura-2 AM (FIG. 8). Cells were pretreated with vehicle or SELTA prior to stimulation with 20 uM ATP. TLR2 specificity of these effects were examined by using MMG11, a TLR2-specific antagonist (10) and PD-1 requirement was examined by pre-incubation with an anti-PD-1 antibody (16).
smiles,measurement,setting,value
CCOC(=O)c1ccc(CC(=O)c2ccc(O)c(O)c2O)o1 [MMG11],effect on SELTA-induced PD-1 mRNA expression (qPCR),PD-1,abrogated the elevation in PD-1 expression
same,effect of TLR2 blockade on SELTA-mediated inhibition of Ca2+ influx,[1],abrogated the SELTA mediated inhibition of Ca^2+ influx; also recorded: reverses SELTA-induced reduction of Ca2+ influx
